Measurements reported in the supplement of paper PMC10307832.

Legend:
Assay in all cases: relative viability (nuclei count vs DMSO), 5 days (fraction); higher = more cells survive
NCI-H2009 = system: NCI-H2009
Method in brief: (§1)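 A single step with final 0.05% Triton X-100, 1% formaldehyde and 1 ug/ml Hoechst fixed the cells and stained nuclei 5 days after treatment. Lung cancer cell lines in 1536-well plates had been treated by pin tool the day after seeding with one drug alone or a fixed anchor-drug dose plus five library-drug doses (not always all listed) in √10 steps, and nuclei were counted on 4× images. Relative viability is the ratio of nuclei in treated wells to nuclei in vehicle wells, taken as the median of duplicate plates.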

NCI-H2342 = system: NCI-H2342
Method in brief: as §1

NCI-H1975 = system: NCI-H1975
Method in brief: as §1

NCI-H1666 = system: NCI-H1666
Method in brief: as §1

UMC-11 = system: UMC-11
Method in brief: as §1

H3255 = system: H3255
Method in brief: as §1

PC-14 = system: PC-14
Method in brief: as §1

NCI-H2228 = system: NCI-H2228
Method in brief: as §1

HCC-827 = system: HCC-827
Method in brief: as §1

NCI-H23 = system: NCI-H23
Method in brief: as §1

PC-3 [JPC-3] = system: PC-3 [JPC-3]
Method in brief: as §1

LC-2-ad = system: LC-2-ad
Method in brief: as §1

NCI-H2087 = system: NCI-H2087
Method in brief: as §1

SK-MES-1 = system: SK-MES-1
Method in brief: as §1

ABC-1 = system: ABC-1
Method in brief: as §1

HCC-15 = system: HCC-15
Method in brief: as §1

LXF-289 = system: LXF-289
Method in brief: as §1

NCI-H661 = system: NCI-H661
Method in brief: as §1

NCI-H2085 = system: NCI-H2085
Method in brief: as §1

HCC-366 = system: HCC-366
Method in brief: as §1

NCI-H1437 = system: NCI-H1437
Method in brief: as §1

LCLC-103H = system: LCLC-103H
Method in brief: as §1

COR-L23 = system: COR-L23
Method in brief: as §1

Cc1cn(-c2cc(NC(=O)c3ccc(C)c(Nc4nccc(-c5cccnc5)n4)c3)cc(C(F)(F)F)c2)cn1 [Nilotinib] + O=C(c1cc(Cc2n[nH]c(=O)c3ccccc23)ccc1F)N1CCN(C(=O)C2CC2)CC1 [Olaparib] (partner 8 µM)
relative viability (NCI-H2009; first compound 0.001 µM): 0.588 | relative viability (NCI-H2009; first compound 0.003162 µM): 0.667 | relative viability (NCI-H2009; first compound 0.01 µM): 0.621 | relative viability (NCI-H2009; first compound 0.03162 µM): 0.599 | relative viability (NCI-H2009; first compound 0.1 µM): 0.9 | relative viability (NCI-H2342; first compound 0.001 µM): 0.399 | relative viability (NCI-H2342; first compound 0.003162 µM): 0.457 | relative viability (NCI-H2342; first compound 0.01 µM): 0.464 | relative viability (NCI-H2342; first compound 0.03162 µM): 0.338 | relative viability (NCI-H2342; first compound 0.1 µM): 0.418 | relative viability (NCI-H1975; first compound 0.001 µM): 0.553 | relative viability (NCI-H1975; first compound 0.003162 µM): 0.809 | relative viability (NCI-H1975; first compound 0.01 µM): 0.786 | relative viability (NCI-H1975; first compound 0.03162 µM): 0.491 | relative viability (NCI-H1975; first compound 0.1 µM): 0.63 | relative viability (NCI-H1666; first compound 0.001 µM): 0.71 | relative viability (NCI-H1666; first compound 0.003162 µM): 0.805 | relative viability (NCI-H1666; first compound 0.01 µM): 0.803 | relative viability (NCI-H1666; first compound 0.03162 µM): 0.778 | relative viability (NCI-H1666; first compound 0.1 µM): 0.754 | relative viability (UMC-11; first compound 0.001 µM): 0.39 | relative viability (UMC-11; first compound 0.003162 µM): 0.384 | relative viability (UMC-11; first compound 0.01 µM): 0.337 | relative viability (UMC-11; first compound 0.03162 µM): 0.341 | relative viability (UMC-11; first compound 0.1 µM): 0.279 | relative viability (H3255; first compound 0.001 µM): 0.533 | relative viability (H3255; first compound 0.003162 µM): 0.561 | relative viability (H3255; first compound 0.01 µM): 0.572 | relative viability (H3255; first compound 0.03162 µM): 0.474 | relative viability (H3255; first compound 0.1 µM): 0.501 | relative viability (PC-14; first compound 0.001 µM): 0.266 | relative viability (PC-14; first compound 0.003162 µM): 0.253 | relative viability (PC-14; first compound 0.01 µM): 0.264 | relative viability (PC-14; first compound 0.03162 µM): 0.264 | relative viability (PC-14; first compound 0.1 µM): 0.339 | relative viability (NCI-H2228; first compound 0.001 µM): 0.459 | relative viability (NCI-H2228; first compound 0.003162 µM): 0.584 | relative viability (NCI-H2228; first compound 0.01 µM): 0.76 | relative viability (NCI-H2228; first compound 0.03162 µM): 0.384 | relative viability (NCI-H2228; first compound 0.1 µM): 0.835 | relative viability (HCC-827; first compound 0.001 µM): 0.637 | relative viability (HCC-827; first compound 0.003162 µM): 0.741 | relative viability (HCC-827; first compound 0.03162 µM): 0.49 | relative viability (HCC-827; first compound 0.1 µM): 0.689 | relative viability (NCI-H23; first compound 0.001 µM): 0.353 | relative viability (NCI-H23; first compound 0.003162 µM): 0.302 | relative viability (NCI-H23; first compound 0.01 µM): 0.321 | relative viability (NCI-H23; first compound 0.03162 µM): 0.295 | relative viability (NCI-H23; first compound 0.1 µM): 0.331 | relative viability (PC-3 [JPC-3]; first compound 0.001 µM): 1.05 | relative viability (PC-3 [JPC-3]; first compound 0.01 µM): 1.35 | relative viability (PC-3 [JPC-3]; first compound 0.03162 µM): 1.16 | relative viability (PC-3 [JPC-3]; first compound 0.1 µM): 0.829 | relative viability (LC-2-ad; first compound 0.001 µM): 0.686 | relative viability (LC-2-ad; first compound 0.003162 µM): 0.755 | relative viability (LC-2-ad; first compound 0.01 µM): 0.689 | relative viability (LC-2-ad; first compound 0.03162 µM): 0.874 | relative viability (LC-2-ad; first compound 0.1 µM): 0.594 | relative viability (NCI-H2087; first compound 0.001 µM): 0.529 | relative viability (NCI-H2087; first compound 0.003162 µM): 0.672 | relative viability (NCI-H2087; first compound 0.01 µM): 0.592 | relative viability (NCI-H2087; first compound 0.03162 µM): 0.552 | relative viability (NCI-H2087; first compound 0.1 µM): 0.514 | relative viability (SK-MES-1; first compound 0.001 µM): 0.611 | relative viability (SK-MES-1; first compound 0.003162 µM): 0.696 | relative viability (SK-MES-1; first compound 0.01 µM): 0.778 | relative viability (SK-MES-1; first compound 0.03162 µM): 0.573 | relative viability (SK-MES-1; first compound 0.1 µM): 0.432 | relative viability (ABC-1; first compound 0.001 µM): 0.671 | relative viability (ABC-1; first compound 0.003162 µM): 0.873 | relative viability (ABC-1; first compound 0.01 µM): 0.778 | relative viability (ABC-1; first compound 0.03162 µM): 0.828 | relative viability (ABC-1; first compound 0.1 µM): 0.673 | relative viability (HCC-15; first compound 0.001 µM): 0.612 | relative viability (HCC-15; first compound 0.003162 µM): 0.778 | relative viability (HCC-15; first compound 0.01 µM): 0.734 | relative viability (HCC-15; first compound 0.03162 µM): 0.692 | relative viability (HCC-15; first compound 0.1 µM): 0.638 | relative viability (LXF-289; first compound 0.001 µM): 1.07 | relative viability (LXF-289; first compound 0.003162 µM): 1.37 | relative viability (LXF-289; first compound 0.01 µM): 1.26 | relative viability (LXF-289; first compound 0.03162 µM): 1 | relative viability (LXF-289; first compound 0.1 µM): 1.06 | relative viability (NCI-H661; first compound 0.001 µM): 0.754 | relative viability (NCI-H661; first compound 0.003162 µM): 0.893 | relative viability (NCI-H661; first compound 0.01 µM): 0.949 | relative viability (NCI-H661; first compound 0.03162 µM): 0.672 | relative viability (NCI-H661; first compound 0.1 µM): 0.748 | relative viability (NCI-H2085; first compound 0.001 µM): 0.747 | relative viability (NCI-H2085; first compound 0.003162 µM): 0.834 | relative viability (NCI-H2085; first compound 0.01 µM): 0.797 | relative viability (NCI-H2085; first compound 0.03162 µM): 0.889 | relative viability (NCI-H2085; first compound 0.1 µM): 0.684 | relative viability (HCC-366; first compound 0.001 µM): 0.272 | relative viability (HCC-366; first compound 0.003162 µM): 0.327 | relative viability (HCC-366; first compound 0.01 µM): 0.339 | relative viability (HCC-366; first compound 0.03162 µM): 0.281 | relative viability (HCC-366; first compound 0.1 µM): 0.281 | relative viability (NCI-H1437; first compound 0.001 µM): 0.603 | relative viability (NCI-H1437; first compound 0.003162 µM): 0.687 | relative viability (NCI-H1437; first compound 0.01 µM): 0.654 | relative viability (NCI-H1437; first compound 0.03162 µM): 0.548 | relative viability (NCI-H1437; first compound 0.1 µM): 0.559 | relative viability (LCLC-103H; first compound 0.001 µM): 0.761 | relative viability (LCLC-103H; first compound 0.003162 µM): 0.903 | relative viability (LCLC-103H; first compound 0.01 µM): 0.969 | relative viability (LCLC-103H; first compound 0.03162 µM): 0.749 | relative viability (LCLC-103H; first compound 0.1 µM): 0.8 | relative viability (COR-L23; first compound 0.001 µM): 0.356 | relative viability (COR-L23; first compound 0.003162 µM): 0.319 | relative viability (COR-L23; first compound 0.01 µM): 0.396 | relative viability (COR-L23; first compound 0.03162 µM): 0.306 | relative viability (COR-L23; first compound 0.1 µM): 0.288
